Data as given in US11760773B2, “Small molecule drug conjugates of gemcitabine monophosphate” (MaveriX Oncology, Inc., priority 2018, dated 2023).
Blank lines part the entries; values can stand above or below the compound they belong to.

Columns and labels:
Human plasma stability = assay type: in vitro ADME; details: 3 μM, 37° C.
Method: (§1) Method: Assay was carried out in 96-well microtiter plates. Compounds were incubated in replicates (n=2) for 0, 5, 15, 30, and 45 minutes at 37° C. Reaction mixtures (20 μL) contained a final concentration of 3 μM test compound in human plasma. Eucatropine included as positive control to verify assay performance. Linear regression of semi-log plot of % remaining of compounds versus time used to determine the half-life t½ values.

[1] = CD-1 mouse plasma stability; assay type: in vitro ADME; details: 3 μM, 37° C.
Method: as §1, with “fresh CD-1 mouse” for “human”, “t1/2” for “t½”

Rat plasma stability = assay type: in vitro ADME; details: 3 μM, 37° C.
Method: as §1, with “fresh Sprague Dawley rat” for “human”, “is a” for “included as”, “t1/2” for “t½”

[2] = Mouse plasma stability (Compound 1); assay type: in vitro ADME; details: 37° C.
[3] = Plasma PK of Int 3-3 in CD-1 mice (study c); assay type: in vivo; details: after iv Int 3-3 8.8 mg/kg
Method: Objectives: to determine the plasma pharmacokinetics of Int 3-3 following a single intravenous infusion of Int 3-3 at 8.83 mg/kg in CD-1 mice
PK measurements: compare PK parameters C0, CL, Vdss, Cmax, tmax, t1/2, AUC(0-t), AUC(0-inf), MRT(0-t), MRT(0-inf) for Int 3-3.

[4] = Metabolic stability in liver hepatocytes, human; assay type: in vitro ADME
[5] = Metabolic stability in liver hepatocytes, mouse; assay type: in vitro ADME
[6] = Metabolic stability in liver hepatocytes, dog; assay type: in vitro ADME
[7] = Metabolic stability in liver hepatocytes, monkey; assay type: in vitro ADME
Human liver S9 stability = assay type: in vitro ADME
Mouse liver S9 stability = assay type: in vitro ADME
[8] = Monkey liver S9 stability; assay type: in vitro ADME
Dog liver S9 stability = assay type: in vitro ADME
Rat liver S9 stability = assay type: in vitro ADME
[9] = Comparative plasma PK of Compound 1 versus Int 1-4 in male CD-1 mice (study b); assay type: in vivo
Method: Objectives: to compare the plasma pharmacokinetics and stability of Compound 1 with its non-phosphorylated SMDC analog (Int 1-4) and in plasma following a single intravenous infusion administration of Compound 1 at 11.6 mg/kg and 23.2 mg/kg with Int 1-4 (formulation F1 & F2) at 10.0 mg/kg in male CD-1 mice
PK measurements: compare PK parameters C0, CL, Vdss, Cmax, tmax, t1/2, AUC(0-t), AUC(0-inf), MRT(0-t), MRT(0-inf) for Compound 1 and Int 1-4

[10] = negative value indicates compound is stable

Compound: CC1CC(OC(=O)C(O)c2ccccc2)CC(C)(C)N1C (centres unmarked) [Eucatropine, reference compound]
half-life at 3 μM (Human plasma stability; read-out: t1/2 Mean ± SE): 15.1 ± 1.1 min
Slope Mean ± SE (Human plasma stability; semi-log plot of % remaining versus time, in min-1 (unit assumed)): −0.04591 ± 0.003277
Slope Mean ± SE ([1]; in min-1 (unit assumed)): −0.03084 ± 0.003016
half-life at 3 μM ([1]; fresh CD-1 mouse plasma, read-out: t1/2 Mean ± SE): 22.5 ± 2.2 min
Slope Mean ± SE (Rat plasma stability; Sprague Dawley rat plasma): −0.007881 ± 0.00112
half-life at 3 μM (Rat plasma stability; fresh Sprague Dawley rat plasma, read-out: t1/2 Mean ± SE): 87.9 ± 12.5 min
Slope Mean ± SE ([2]; 3 μM): −0.03084 ± 0.003016
half-life at 3 μM ([2]; CD-1, 3 μM, read-out: t1/2 Mean ± SE): 22.5 ± 2.2 min

Compound: C=CCN1CC[C@]23c4c5ccc(O)c4O[C@H]2C(=O)CC[C@@]3(O)[C@H]1C5 [Naxalone]
Slope Mean ± SE [4]: −0.01335 ± 0.000878
t1/2 mean ± SE [4]: 51.9 ± 3.4 min
Slope Mean ± SE [5]: −0.01828 ± 0.000731
t1/2 mean ± SE [5]: 37.9 ± 1.5 min
Slope Mean ± SE [6]: −0.01302 ± 0.001119
t1/2 mean ± SE [6, 10]: 53.2 ± 4.6 min
Slope Mean ± SE [7]: −0.02948 ± 0.001002
t1/2 mean ± SE [7, 10]: 23.5 ± 0.8 min

Compound: Gemcitabine monophosphate
AUC0-last ([9]; after iv Compound 1 11.6 mg/kg): 0.840 ng·h/mL
Cmax ([9]; after iv Compound 1 11.6 mg/kg): 33.6 ng/mL
MRT0-last ([9]; after iv Compound 1 11.6 mg/kg): 1.79 min
Tmax ([9]; after iv Compound 1 11.6 mg/kg): 1.5 min
AUC0-last ([9]; after iv Compound 1 23.2 mg/kg): 1.18 ng·h/mL
AUC(0-inf) ([9]; after iv Compound 1 23.2 mg/kg): 1.44 ng·h/mL
Cmax ([9]; after iv Compound 1 23.2 mg/kg): 30.4 ng/mL
MRT0-inf ([9]; after iv Compound 1 23.2 mg/kg): 3.3 min
MRT0-last ([9]; after iv Compound 1 23.2 mg/kg): 2.38 min
Tmax ([9]; after iv Compound 1 23.2 mg/kg): 1.5 min
t1/2 ([9]; after iv Compound 1 23.2 mg/kg): 1.64 min

Second part, the compound after the results:

AUC0-inf/AUC0-last [3]: 101%
AUC(0-t) ([3]; mouse): 3480 ng·h/mL
C0 ([3]; mouse): 45900 ng/mL
clearance ([3]; mouse): 43.3 mL/min/kg
half-life ([3]; mouse): 74.4 min
AUC(0-inf) ([3]; mouse, read-out: AUC0-inf): 3510 ng·h/mL
MRT inf ([3]; mouse, read-out: MRT0-inf): 46 min
MRT last ([3]; mouse, read-out: MRT0-last): 42.2 min
Vd ([3]; mouse, read-out: Vdss): 1.83 L/kg
Compound: [2H]C([2H])([2H])Oc1cc(OC([2H])([2H])[2H])c2oc(COC(=O)Nc3ccn([C@@H]4O[C@H](CO)[C@@H](O)C4(F)F)c(=O)n3)cc2c1 [Int 3-3]

half-life (Human liver S9 stability; human liver S9, read-out: t1/2 Mean ± SE): 8.2 ± 0.2 min
microsomal CLint (Human liver S9 stability; human, liver S9, human liver S9, read-out: CLint Mean ± SE): 33.8 ± 0.92 µL/min/mg
Slope Mean ± SE (Mouse liver S9 stability; mouse liver S9): −0.06127 ± 0.006525
half-life (Mouse liver S9 stability; mouse liver S9, read-out: t1/2 Mean ± SE): 11.3 ± 1.2 min
microsomal CLint (Mouse liver S9 stability; mouse, liver S9, mouse liver S9, read-out: CLint Mean ± SE): 24.5 ± 2.61 µL/min/mg
Slope Mean ± SE ([8]; monkey liver S9): −0.1391 ± 0.01406
half-life ([8]; monkey liver S9, read-out: t1/2 Mean ± SE): 5 ± 0.5 min
microsomal CLint ([8]; monkey, liver S9, monkey liver S9, read-out: CLint Mean ± SE): 55.6 ± 5.62 µL/min/mg
Slope Mean ± SE (Dog liver S9 stability; dog liver S9): −0.03892 ± 0.001665
half-life (Dog liver S9 stability; dog liver S9, read-out: t1/2 Mean ± SE): 17.8 ± 0.8 min
microsomal CLint (Dog liver S9 stability; dog, liver S9, dog liver S9, read-out: CLint Mean ± SE): 15.6 ± 0.666 µL/min/mg
Slope Mean ± SE (Rat liver S9 stability; rat liver S9): −0.03134 ± 0.00198
half-life (Rat liver S9 stability; rat liver S9, read-out: t1/2 Mean ± SE): 22.1 ± 1.4 min
microsomal CLint (Rat liver S9 stability; rat, liver S9, rat liver S9, read-out: CLint Mean ± SE): 12.5 ± 0.792 µL/min/mg
Compound: COc1cc2ccc(=O)oc2cc1O [Scopoletin, reference compound]
